Key:
[1] = molecular target: T1, NAT10 (Homo sapiens, UniProt Q9H0A0); assay: DARTS; assay type: cell-based
T1 sequence (Q9H0A0 1-1025): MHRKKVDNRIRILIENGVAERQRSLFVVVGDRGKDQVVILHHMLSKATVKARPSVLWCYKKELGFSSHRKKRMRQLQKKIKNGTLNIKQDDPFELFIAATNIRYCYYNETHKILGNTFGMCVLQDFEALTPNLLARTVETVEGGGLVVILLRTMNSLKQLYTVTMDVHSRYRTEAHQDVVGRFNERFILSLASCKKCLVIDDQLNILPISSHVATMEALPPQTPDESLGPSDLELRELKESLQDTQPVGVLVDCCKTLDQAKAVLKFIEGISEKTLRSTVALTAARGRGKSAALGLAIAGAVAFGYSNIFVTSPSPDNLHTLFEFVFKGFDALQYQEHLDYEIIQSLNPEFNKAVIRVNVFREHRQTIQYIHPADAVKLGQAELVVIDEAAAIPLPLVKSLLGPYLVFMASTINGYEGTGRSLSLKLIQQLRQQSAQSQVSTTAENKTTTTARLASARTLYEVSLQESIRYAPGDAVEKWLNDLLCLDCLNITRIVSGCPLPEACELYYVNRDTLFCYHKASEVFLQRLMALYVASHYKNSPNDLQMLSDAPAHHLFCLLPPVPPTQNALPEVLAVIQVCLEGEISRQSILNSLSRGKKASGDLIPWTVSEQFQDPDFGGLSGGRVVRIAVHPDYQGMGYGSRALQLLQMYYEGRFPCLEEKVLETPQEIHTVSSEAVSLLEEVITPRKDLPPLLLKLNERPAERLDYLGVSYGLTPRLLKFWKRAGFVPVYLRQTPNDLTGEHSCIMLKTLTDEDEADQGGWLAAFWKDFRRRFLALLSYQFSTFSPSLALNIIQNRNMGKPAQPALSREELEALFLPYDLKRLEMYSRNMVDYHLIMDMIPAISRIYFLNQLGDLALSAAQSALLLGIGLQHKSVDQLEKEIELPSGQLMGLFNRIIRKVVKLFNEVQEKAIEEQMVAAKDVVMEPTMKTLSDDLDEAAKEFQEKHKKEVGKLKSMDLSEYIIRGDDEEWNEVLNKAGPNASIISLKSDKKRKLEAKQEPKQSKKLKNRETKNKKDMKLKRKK

[2] = molecular target: T1, NAT10; assay: DARTS in MOLM13 lysate; assay type: cell-based

SMILES | DARTS (protection from pronase digestion) in MOLM13 lysate [1] | DARTS in MOLM13 lysate; CETSA in MonoMac6 cells [2]
Nc1nc(F)nc2c1ncn2[C@@H]1O[C@H](COP(=O)(O)OP(=O)(O)OP(=O)(O)O)[C@@H](O)[C@@H]1O [F-ara-ATP, fludarabine triphosphate] | The binding of fludarabine and F-ara-ATP with NAT10 were confirmed by drug affinity responsive target stability assay (DARTS) | –
Nc1nc(F)nc2c1ncn2[C@@H]1O[C@H](COP(=O)(O)O)[C@@H](O)[C@@H]1O [P-F-ara-A, fludarabine (P-F-ara-A)] | DARTS assays evaluating the efficacy of Remodelin, P-F-ara-A and F-ara-ATP on protecting NAT10 protein against pronase digestion | –
N#Cc1ccc(-c2csc(NN=C3CCCC3)n2)cc1 [Remodelin] | – | Thermal shift curves of NAT10 from CETSA assays in MonoMac6 pretreated with fludarabine (F-ara-A), Remodelin or dimethylsulfoxide (DMSO)
